Reference: PubChem BioAssay (NCI)
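Cultured in 96-well plates, cells were exposed to test compound for 48 hours across five concentrations. TGI: total growth inhibition.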

Tests used:
Experiment in all cases: DTP human tumour cell line panel, 48 h
LOX IMVI melanoma = system: LOX IMVI melanoma
NCI-H226 lung = system: NCI-H226 lung
OVCAR-8 ovarian = system: OVCAR-8 ovarian
SK-MEL-2 melanoma = system: SK-MEL-2 melanoma
NCI-H23 lung = system: NCI-H23 lung
ACHN renal = system: ACHN renal
786-0 renal = system: 786-0 renal
COLO 205 colon = system: COLO 205 colon
TK-10 renal = system: TK-10 renal
SN12C renal = system: SN12C renal
HOP-92 NSCLC = system: HOP-92 NSCLC
SK-OV-3 ovarian = system: SK-OV-3 ovarian
CAKI-1 renal = system: CAKI-1 renal
MCF7 breast = system: MCF7 breast
CCRF-CEM leukemia = system: CCRF-CEM leukemia
DU-145 prostate = system: DU-145 prostate
MALME-3M melanoma = system: MALME-3M melanoma
HCT-116 colon = system: HCT-116 colon
HOP-62 NSCLC = system: HOP-62 NSCLC
SF-539 CNS = system: SF-539 CNS
SR leukemia = system: SR leukemia
UACC-62 melanoma = system: UACC-62 melanoma
SNB-75 CNS = system: SNB-75 CNS
SF-295 CNS = system: SF-295 CNS
K-562 leukemia = system: K-562 leukemia
MDA-MB-435 = system: MDA-MB-435
OVCAR-3 ovarian = system: OVCAR-3 ovarian
BT-549 breast = system: BT-549 breast
NCI-H522 lung = system: NCI-H522 lung
SF-268 CNS = system: SF-268 CNS
EKVX NSCLC = system: EKVX NSCLC
HT29 colon = system: HT29 colon
OVCAR-4 ovarian = system: OVCAR-4 ovarian
MDA-MB-231 breast = system: MDA-MB-231 breast
A498 renal = system: A498 renal
IGROV1 ovarian = system: IGROV1 ovarian
SK-MEL-5 melanoma = system: SK-MEL-5 melanoma
NCI/ADR-RES ovarian = system: NCI/ADR-RES ovarian
HCT-15 colon = system: HCT-15 colon
HCC-2998 colon = system: HCC-2998 colon
KM12 colon = system: KM12 colon
MDA-N = system: MDA-N
HL-60(TB) leukemia = system: HL-60(TB) leukemia
UO-31 renal = system: UO-31 renal
M14 melanoma = system: M14 melanoma
SK-MEL-28 melanoma = system: SK-MEL-28 melanoma
HS 578T breast = system: HS 578T breast
T-47D breast = system: T-47D breast
SNB-19 CNS = system: SNB-19 CNS
MOLT-4 leukemia = system: MOLT-4 leukemia
OVCAR-5 ovarian = system: OVCAR-5 ovarian
RXF 393 renal = system: RXF 393 renal
U251 CNS = system: U251 CNS
PC-3 prostate = system: PC-3 prostate
A549 NSCLC = system: A549 NSCLC
NCI-H460 lung = system: NCI-H460 lung
SW-620 colon = system: SW-620 colon
UACC-257 melanoma = system: UACC-257 melanoma
RPMI-8226 leukemia = system: RPMI-8226 leukemia

Measured: TGI

O=S(=O)(O)c1ccc2c(N=Nc3cccc4ccccc34)c(O)c(S(=O)(=O)O)cc2c1
> 100 µM: all assays above
